Data set [1] relates to A549 (human lung adenocarcinoma, ATCC CCL-185). The format is cell-based. As to the method:
The toxic effect was evaluated indirectly using the colorimetric MTT assay (3-[4,5-dimethylthiazol-2-yl]-2,5-diphenyl tetrazolium bromide, Thermo Fisher Scientific Inc, Massachusetts, USA) on A549 (human lung adenocarcinoma, ATCC CCL-185) and RAW 264.7 (murine macrophage-like ATCC TIB-71) cell lines. Cell lines were kindly provided by Instituto de Virología e Innovaciones Tecnológicas (IVIT), (INTA-CONICET, Buenos Aires, Argentina).
For the assay, A549 cells were seeded in 96-well plates at a density of 1 × 10^4 cells per well, while RAW 264.7 cells were seeded at a density of 5 × 10^4 cells per well. The plates were incubated for 24 h at 37 °C with 5% CO^2 to allow cell adhesion. The peptide P6.2 was dissolved in distilled water at a stock concentration of 10.24 mg/mL, and serial dilutions were made in RPMI-1640 medium supplemented with 10% fetal bovine serum (FBS, Internegocios S.A., Mercedes, Argentina). The concentrations used to assess P6.2 toxicity were the same as those previously employed in bacterial studies to determine the minimum inhibitory concentration (MIC) in antimicrobial activity assays. For the A549 cell line, P6.2 concentrations ranged from 4 µg/mL to 1024 µg/mL using serial dilutions in culture medium. For the RAW 264.7 cells, P6.2 concentrations ranged from 256 µg/mL to 8 µg/mL, with the concentration range adjusted based on preliminary results obtained from the A549 cell line.
Peptides were added and plates were incubated for 24 h at 37 °C in a 5% CO2 atmosphere. After incubation, the culture medium was removed, and the cells were washed with PBS (Phosphate Buffered Saline pH 7.2) to remove any remnants of the treatments. Next, 100 µL of MTT solution (0.5 mg/mL in PBS) was added to each well, and the plates were incubated for 0.5 to 3 h at 37 °C. During this period, viable cells reduced MTT, forming visible formazan crystals under a light field microscope (Zeiss Primovent, Oberkochen, Germany), indicating the cell metabolism of the compound.
At the end of the incubation, the supernatant was removed, and 200 µL of DMSO was added to each well to dissolve the formazan crystals. The plates were shaken to homogenize the contents, and absorbance was measured at 570 nm using a microplate reader (RT2100, Rayto Life and Analytical Sciences Co., Ltd, Shenzhen, China). Triplicates were run for each treatment. Cell viability was calculated by setting the absorbance value obtained for untreated control cells as 100% viability.

The next data set relates to mice erythrocytes. As to conditions: cited from earlier work. The source says:
(§1) Peptide 6.2 (P6.2) is a de novo designed antimicrobial peptide, with an amphipathic alfa helical structure.

For data set [2] the following is noted: affinity towards eukaryotic and prokaryotic membranes; cited from earlier work.
Text: as §1

Another data set has as its system human erythrocytes. As to conditions: cited from earlier work. The procedure: Peptide 6.2 (P6.2) is a de novo designed antimicrobial peptide, with an amphipathic alfa helical structure. […] These findings are also in accordance with the previous results obtained for toxicity by hemolytic activity (hemolysis below 5% until 128 µg/mL).
The test system of data set [3] is P. aeruginosa M13513. Briefly: Bactericidal effect by killing kinetics (time-kill curve). It is filed as cell-based, Pseudomonas aeruginosa. The following applies: killing kinetics at 64 µg/mL of P6.2. As to the method:
The bactericidal activity was determined according to the CLSI recommendations. In short, the bactericidal activity of the antimicrobial agents on the microorganisms was evaluated using a time–kill curve. The Minimal Bactericidal Concentration (MBC) is the lowest drug concentration required to eliminate 99.9% of viable organisms (a 3-log reduction in CFU/mL compared to the control) after a set incubation period under defined conditions. This is the most common method for estimating bactericidal activity.
The killing kinetics of an antimicrobial agent allow us to observe how the agent exerts its activity as a function of time, determining viable cells by counting colony-forming units at different time points. Normally, for commonly used antibiotics, this measurement is carried out over a 24-h period, since they reach their maximum activity during this period. However, for AMPs, these times are much shorter; in fact, these antimicrobials exert their maximum activity in just hours or minutes. For this reason, killing kinetics at MIC was carried out by measuring viable bacteria at short intervals over a period of three hours.

The subject of data set [4] is P. aeruginosa strain PA01. As to conditions: sub-MIC concentrations, reference strain PAO1; cited from earlier work. The source says: Biofilms are complex bacterial communities characterized by extensive intercellular interactions. Biofilm-associated bacteria, including P. aeruginosa, are commonly implicated in chronic infections that can persist for years. As such, managing biofilm-associated infections has become a critical focus in antimicrobial therapy, given their resistance to conventional antibiotic concentrations.

The test system of data set [5] is P. aeruginosa M13513. Nature of the data set: Eradication of pre-formed biofilm and cell viability (crystal violet, MTT, CLSM). The format is cell-based, Pseudomonas aeruginosa. The following applies: 1xMIC to 8xMIC. The procedure: Biofilms of P. aeruginosa M13513 were grown in 96-well flat-bottom polystyrene plates using CAMHB for 24 h. Once the biofilms were established, the supernatant was removed, and 100 µL of CAMHB containing two-fold serial dilutions of antimicrobials were added to each well. The plates were then incubated for an additional 24 h at 37 °C.
For each experiment, two sets of plates were prepared: one for biofilm quantification using the crystal violet (CV) staining method described earlier, and another to assess bacterial cell viability within the biofilm using the MTT assay (3-(4,5-dimethylthiazol-2-yl)-2,5-diphenyltetrazolium bromide). To perform the MTT assay, the medium was carefully removed, and biofilms were washed three times with 200 µL of saline solution. Subsequently, 100 µL of a 0.05% (w/v) MTT solution was added to each well, and the plates were incubated in the dark at 37 °C for 3 h.
Following incubation, the supernatant was discarded, and the resulting formazan crystals were dissolved in 100 µL of DMSO. The samples were then homogenized by orbital shaking for 10 min. Finally, absorbance was measured at 570 nm using a microplate reader. […]
The proportion of live and dead bacteria was determined by analyzing three representative images from each biofilm sample using the ImageJ software 1.52v with the FIJI plugin.

No end group written: not given here.

The substance GLLRKWGKKWKEFLRRVWK-NH2 [Peptide P6.2] registered a LogCC50 in data set [1] of 2.100. For the same substance, in data set [1] (24 h), the “CC50 (cytotoxic concentration 50%)” value turned out to be 125.8 mg/L. Besides, the erythrocytes lysis entry in the data set on mice erythrocytes and in the data set on human erythrocytes was “less than 10%” in each case. For the same substance, the membrane selectivity entry in data set [2] is given as “selectivity for bacterial membranes”. Also, in the data set with P. aeruginosa M13513 [3], the “time to 99.9% reduction in viable bacteria (bactericidal effect)” value is on record as “less than 45 min”. In addition, the anti-biofilm activity result in data set [4] was “did not display anti-biofilm activity”. Further, the “bacterial viability inside the pre-formed biofilm” value in the data set on P. aeruginosa M13513 [5] (MTT assay, confirmed by SYTO9/PI confocal microscopy) is reported as “significantly decreased the bacterial viability inside the biofilm”. The pre-formed biofilm mass result in the data set with P. aeruginosa M13513 [5] (crystal violet, 24 h treatment) is recorded as “diminished the biofilm mass”.

The values are drawn from publication PMC11940343, “In Vitro and In Vivo Evaluation of the De Novo Designed Antimicrobial Peptide P6.2 Against a KPC-Producing P. aeruginosa Clinical Isolate” (Biomolecules, 2025).
